# Tests used:
# southern armyworm [1] = assay: Topical application, southern armyworm; assay type: in vivo, Spodoptera eridania; conditions: SAW; for Topical % Kill @ 5000 ng/insect: 24 hours
# Procedure: (§1) Topical Application: The compounds of this invention were tested for insecticidal activity against various insect species selected from southern armyworm (Spodoptera eridania), Mexican bean beetle, (Epilachna varivestis), milkweed bug (Oncopeltus fasciatus), and cabbage looper (Tricoplusia ni) by applying to the second or third dorsal thoracic segment of each larvae a one microliter droplet containing 5 mg/mL of test compound in acetone (5000 ng/insect). The test was allowed to stand 24 hours after application and was then read to determine the percent kill.
# (§2) To determine the LD50 of the compounds, the topical application test was repeated by applying various amounts of toxicant. Also included among the species tested against for this determination were tobacco budworm (Heliothis virescens), beet armyworm (Spodoptera exigua), and boll weevil (Anthonomus grandis).
# cabbage looper = assay: Topical application, cabbage looper; assay type: in vivo, Tricoplusia ni; conditions: CL; for Topical % Kill @ 5000 ng/insect: 24 hours
# Procedure: as §1, §2
# tobacco budworm = assay: Topical application, tobacco budworm; assay type: in vivo, Heliothis virescens; conditions: TBW
# Procedure: as §1, §2
# milkweed bug = assay: Topical application, milkweed bug; assay type: in vivo, Oncopeltus fasciatus; conditions: MWB; for Topical % Kill @ 5000 ng/insect: 24 hours
# Procedure: as §1, §2
# southern armyworm [2] = assay: Foliar application, southern armyworm; assay type: in vivo; conditions: Spodoptera eridania, SAW, foliar, 48 hours, read-out: Foliar % Kill (ppm)
# Procedure: (§3) Foliar Application: The activity of some of the compounds of the invention against various test species selected from pea aphid (Acyrthosiphon pisum), twospotted spider mite (Tetranychus urticae), southern armyworm (Spodoptera eridania), Mexican bean beetle (Epilachna varivestis), and cabbage looper (Tricoplusia ni) was determined by foliar application of the test compound. The test materials were formulated as aqueous solutions containing 10% acetone and 0.25% acetylphenoxypolyethoxyethanol. Activity against pea aphid was determined on English fava bean plants the leaves of which were sprayed to runoff with various concentrations of test solution prior to infestation with adult aphids. Activity against twospotted spider mite was evaluated on pinto bean plants whose leaves were sprayed to runoff with various concentrations of test solution after infestation with adult mites. Activity against the remaining species was evaluated on pinto bean plants whose leaves were sprayed to runoff with various concentrations of test solution before infestation with the appropriate immature insects. Mortality was read approximately 48 hours after treatment.
# Mexican bean beetle [3] = assay: Foliar application, Mexican bean beetle; assay type: in vivo; conditions: Epilachna varivestis, MBB, foliar, 48 hours, read-out: Foliar % Kill (ppm)
# Procedure: as §3
# pea aphid = assay: Foliar application, pea aphid; assay type: in vivo; conditions: Acyrthosiphon pisum, PA, foliar, 48 hours, read-out: Foliar % Kill (ppm)
# Procedure: as §3
# Mexican bean beetle [4] = assay: Topical application, Mexican bean beetle; assay type: in vivo, Epilachna varivestis; conditions: MBB; for Topical % Kill @ 5000 ng/insect: 24 hours
# Procedure: as §1, §2
# twospotted spider mite = assay: Foliar application, twospotted spider mite; assay type: in vivo; conditions: Tetranychus urticae, TSM, foliar, 48 hours, read-out: Foliar % Kill (ppm)
# Procedure: as §3
smiles,measurement,setting,value
"CC1(C)C(C=C(Cl)Cl)C1C(=O)OCc1cccc(-c2cccs2)c1 (mixture of isomers) [a, 3-(2-thienyl)phenylmethyl cis,trans-3-(2,2-dichloroethenyl)-2,2-dimethylcyclopropanecarboxylate]",Topical LD50,southern armyworm [1],148 ng/insect
same,Topical % Kill @ 5000 ng/insect,southern armyworm [1],100%
same,Topical LD50,cabbage looper,3649 ng/insect
same,Topical % Kill @ 5000 ng/insect,cabbage looper,100%
"Cc1c(COC(=O)C2C(C=C(Cl)Cl)C2(C)C)cccc1-c1ccco1 (mixture of isomers) [o, [3-(2-furanyl)-2-methylphenyl]methyl cis,trans-3-(2,2-dichloroethenyl)-2,2-dimethylcyclopropanecarboxylate]",Topical LD50,tobacco budworm,45 ng/insect
same,Topical LD50,milkweed bug,450 ng/insect
same,Topical % Kill @ 5000 ng/insect,milkweed bug,100%
same,mortality at 500 ppm,southern armyworm [2],100%
same,mortality at 64 ppm,Mexican bean beetle [3],45%
same,Topical LD50,southern armyworm [1],146 ng/insect
same,Topical % Kill @ 5000 ng/insect,southern armyworm [1],100%
same,mortality at 500 ppm,pea aphid,100%
same,Topical LD50,Mexican bean beetle [4],86 ng/insect
same,Topical % Kill @ 5000 ng/insect,Mexican bean beetle [4],100%
same,mortality at 16 ppm,twospotted spider mite,0%
same,Topical LD50,cabbage looper,536 ng/insect
"CC1(C)[C@H](C=C(Cl)Cl)[C@@H]1C(=O)OCc1cccc(-c2cccs2)c1 (relative stereo) [b, 3-(2-thienyl)phenylmethyl cis-3-(2,2-dichloroethenyl)-2,2-dimethylcyclopropanecarboxylate]",Topical LD50,milkweed bug,1715 ng/insect
same,mortality at 512 ppm,southern armyworm [2]; 512 ppm,95%
same,mortality at 512 ppm,Mexican bean beetle [3]; 512 ppm,80%
same,Topical LD50,southern armyworm [1],54 ng/insect
same,mortality at 512 ppm,pea aphid; 512 ppm,80%
same,Topical LD50,Mexican bean beetle [4],471 ng/insect
same,mortality at 500 ppm,twospotted spider mite,0%
same,Topical LD50,cabbage looper,1275 ng/insect
"CC1(C)[C@@H](C=C(Cl)Cl)[C@@H]1C(=O)OCc1cccc(-c2cccs2)c1 (relative stereo) [c, 3-(2-thienyl)phenylmethyl trans-3-(2,2-dichloroethenyl)-2,2-dimethylcyclopropanecarboxylate]",Topical LD50,southern armyworm [1],421 ng/insect
same,Topical % Kill @ 5000 ng/insect,southern armyworm [1],100%
same,Topical % Kill @ 5000 ng/insect,cabbage looper,0%
"Cc1c(COC(=O)[C@H]2[C@@H](C=C(Cl)C(F)(F)F)C2(C)C)cccc1-c1cccnc1 (relative stereo) [r, [2-methyl-3-(pyridin-3-yl)phenyl]methyl cis-3-(2-chloro-3,3,3-trifluoro-1-propenyl)-2,2-dimethylcyclopropanecarboxylate]",Topical LD50,milkweed bug,1047 ng/insect
same,Topical % Kill @ 5000 ng/insect,milkweed bug,100%
same,mortality at 500 ppm,southern armyworm [2],100%
same,mortality at 64 ppm,Mexican bean beetle [3],25%
same,Topical LD50,southern armyworm [1],2626 ng/insect
same,Topical % Kill @ 5000 ng/insect,southern armyworm [1],100%
same,mortality at 500 ppm,pea aphid,95%
same,Topical LD50,Mexican bean beetle [4],863 ng/insect
same,mortality at 16 ppm,twospotted spider mite,0%
"Cc1c(COC(=O)[C@H]2[C@@H](C=C(Cl)C(F)(F)F)C2(C)C)cccc1-c1ccccn1 (relative stereo) [s, [2-methyl-3-(pyridin-2-yl)phenyl]methyl cis-3-(2-chloro-3,3,3-trifluoro-1-propenyl)-2,2-dimethylcyclopropanecarboxylate]",Topical LD50,milkweed bug,607 ng/insect
same,Topical % Kill @ 5000 ng/insect,milkweed bug,100%
same,mortality at 500 ppm,southern armyworm [2],100%
same,mortality at 64 ppm,Mexican bean beetle [3],60%
same,Topical LD50,southern armyworm [1],60 ng/insect
same,Topical % Kill @ 5000 ng/insect,southern armyworm [1],100%
same,mortality at 500 ppm,pea aphid,100%
same,Topical LD50,Mexican bean beetle [4],38 ng/insect
same,Topical % Kill @ 5000 ng/insect,Mexican bean beetle [4],100%
same,mortality at 500 ppm,twospotted spider mite,80%
